Measured values: US20230115208A1, “RING-FUSED THIAZOLINO 2-PYRIDONES, METHODS FOR PREPARATION THEREOF AND THEIR USE IN THE TREATMENT AND/OR PREVENTION OF TUBERCULOSIS” (QURETECH BIO AB, priority 2016, published 2023)
Where two headings read alike, the source gives them in different places.

Key:
[1] = tested on: Erdman Wild-Type Mycobacterium tuberculosis; assay type: cell-based
katGFSAA6 Mtb = test: Lawn of katGFSAA6 Mtb plated on agar (FIG. 9c-9f); assay type: cell-based, Mycobacterium tuberculosis
[2] = tested on: Mycobacterium tuberculosis Erdman; test: Biofilm inhibition of Mycobacterium tuberculosis (ocular inspection); assay type: cell-based; conditions: for inhibition at 10 µM: read-out: Average % Inhibition at 10 μM; for inhibition at 25 µM: read-out: Average % Inhibition at 25 μM; for minimal effective concentration: concentration at which full biofilm inhibition took place, replicate determinations in one cell
[3] = tested on: Mycobacterium tuberculosis; assay type: cell-based
Mtb = conditions: cited from earlier work
[4] = tested on: Mycobacterium tuberculosis; assay type: cell-based; remark: listed apart in the source
[5] = biofilm inhibition, 10 μM, average of three or more measurements (100/50/0% scoring)
[6] = biofilm inhibition, 25 μM, average of three or more measurements (100/50/0% scoring)
[7] = biofilm inhibition, average of three or more measurements (100/50/0% scoring)

| SMILES | inhibition at 10 µM [2, 5] | inhibition at 25 µM [2, 6] | inhibition at 50 µM [2, 7] | minimal effective concentration [2] | further results |
| --- | --- | --- | --- | --- | --- |
| O=C(O)[C@@H]1CSc2c(C3CC3)c(Cc3cccc4ccccc34)cc(=O)n21 [Example 1, (3R)-7-Cyclopropyl-6-[(1-naphthyl)methyl]-4-oxo-1-thia-3a-aza-3-indancarboxylic acid] | – | – | – | – | doubling time [1]: 52 h; fold less Mtb in the culture as compared to controls (CFU) [1]: 7.6 fold; growth of katGFSAA6 strain on agar (katGFSAA6 Mtb): able to grow; inhibition at 10 µM [2]: 100%; inhibition at 25 µM [2]: 100% |
| O=C(O)[C@@H]1CSc2c(C3CC3)c(Cc3cccc4ccccc34)cc(=O)n21 [(3R)-7-Cyclopropyl-6-[(1-naphthyl)methyl]-4-oxo-1-thia-3a-aza-3-indancarboxylic acid] | – | – | – | – | eradication of Mycobacterium tuberculosis (conclusion) [3]: did not eradicate |
| O=c1cc(Cc2cccc3ccccc23)c(C2CC2)c2n1[C@H](c1nnn[nH]1)CS2 [Example 12, (3R)-7-Cyclopropyl-6-[(1-naphthyl)methyl]-3-(1H-1,2,3,4-tetrazol-5-yl)-1-thia-3a-aza-4-indanone] | 12% | 50% | 87% | – | – |
| Cn1cc(-c2c(COc3cccc4ccccc34)cc(=O)n3c2SCC3C(=O)O)c2ccccc21 (stereo not drawn) [Example 29, 7-(1-Methyl-1H-indol-3-yl)-6-[(1-naphthyloxy)methyl]-4-oxo-1-thia-3a-aza-3-indancarboxylic acid] | – | – | – | 50 µM | – |
| O=c1cc(Cc2cccc3ccccc23)c(C2CC2)c2n1CCS2 [Example 31, 7-Cyclopropyl-6-[(1-naphthyl)methyl]-1-thia-3a-aza-4-indanone] | – | – | 100% | – | – |
| O=C(O)[C@@H]1CSc2c(C3CC3)c(Cc3cc4ccccc4s3)cc(=O)n21 [Example 2, (3R)-7-Cyclopropyl-4-oxo-6-{(7-thiabicyclo[4.3.0]nona-1,3,5,8-tetraen-8-yl)methyl}-1-thia-3a-aza-3-indancarboxylic acid] | 63% | 100% | 75% | 25 µM | – |
| NNC(=O)c1ccncc1 [INH, isonicotinylhydrazide, reference compound] | – | – | – | – | Mtb growth as measured by ODλ600 [1]: completely inhibited; culturable bacteria remaining (CFU) [1]: several thousand; growth of katGFSAA6 strain on agar (katGFSAA6 Mtb; agar plates containing INH, Example 1 or combination): able to grow; MIC (Mtb): 0.02 to 0.06 µg/mL; tuberculosis bacteria detected (ratio of CFU treated/untreated) ([4]; […], Example 1 50 microM, Example 19 25 microM): tuberculosis bacteria remained; eradication of Mycobacterium tuberculosis (conclusion) ([4]; conclusions from FIG. 5 and FIG. 6 experiments): did not eradicate |
| O=C(O)c1c(Cc2ccccc2)sc2c(C3CC3)c(Cc3cccc4ccccc34)cc(=O)n12 [Example 19, 8-Benzyl-5-cyclopropyl-4-[(1-naphthyl)methyl]-2-oxo-7-thia-1-azabicyclo[4.3.0]nona-3,5,8-triene-9-carboxylic acid] | 0% | 0% | 88% | – | inhibition at 100 µM ([2]; biofilm inhibition, 100 μM, average of three or more measurements (100/50/0% scoring)): 100% |
| O=C(O)[C@@H]1CSc2c(C3CC3)c(Cc3ccc4ccccc4c3)cc(=O)n21 [Example 15, (3R)-7-Cyclopropyl-6-[(2-naphthyl)methyl]-4-oxo-1-thia-3a-aza-3-indancarboxylic acid] | 87% | 100% | 100% | 50 µM | – |
| O=C(O)C1C[S+]([O-])c2c(C3CC3)c(Cc3cccc4ccccc34)cc(=O)n21 (stereo not drawn) [Example 44, 7-Cyclopropyl-6-[(1-naphthyl)methyl]-1-oxo-4-oxo-1-thia-3a-aza-3-indancarboxylic acid] | 25% | 75% | 100% | – | – |
| Cc1cccc(-c2sc3c(C4CC4)c(Cc4cccc5ccccc45)cc(=O)n3c2C(=O)O)c1 [Example 14, 5-Cyclopropyl-4-[(1-naphthyl)methyl]-2-oxo-8-(m-tolyl)-7-thia-1-azabicyclo[4.3.0]nona-3,5,8-triene-9-carboxylic acid] | 0% | 88% | 100% | – | – |
| Cc1c(Cc2cccc3ccccc23)cc(=O)n2c1SC[C@H]2C(=O)O [Example 10, (3R)-7-Methyl-6-[(1-naphthyl)methyl]-4-oxo-1-thia-3a-aza-3-indancarboxylic acid] | 69% | 100% | 100% | – | – |
| O=c1cc(Cc2cccc3ccccc23)c(C2CC2)c2n1[C@H](CO)CS2 [Example 16, (3R)-7-Cyclopropyl-3-(hydroxymethyl)-6-[(1-naphthyl)methyl]-1-thia-3a-aza-4-indanone] | 25% | 62% | 100% | – | – |
| CCOc1c(Cc2cccc3ccccc23)cc(=O)n2c1SC[C@H]2C(=O)O [Example 45, (3R)-7-Ethoxy-6-[(1-naphthyl)methyl]-4-oxo-1-thia-3a-aza-3-indancarboxylic acid] | – | 50% | 25% | – | – |
| Cc1cccc(Cc2cc(=O)n3c(c2C2CC2)SC[C@H]3C(=O)O)c1C [Example 9, (3R)-7-Cyclopropyl-4-oxo-6-[(2,3-xylyl)methyl]-1-thia-3a-aza-3-indancarboxylic acid] | 50% | 87% | 87% | 25 µM | – |
| CN(C)c1c(Cc2cccc3ccccc23)cc(=O)n2c1SC[C@H]2C(=O)O [Example 40, (3R)-7-(Dimethylamino)-6-[(1-naphthyl)methyl]-4-oxo-1-thia-3a-aza-3-indancarboxylic acid] | 50% | 100% | 50% | – | – |
| Cc1ccc(Cc2cc(=O)n3c(c2C2CC2)SC[C@H]3C(=O)O)c2ccccc12 [Example 4, (3R)-7-Cyclopropyl-6-[(4-methyl-1-naphthyl)methyl]-4-oxo-1-thia-3a-aza-3-indancarboxylic acid] | 100% | 100% | 100% | 25 µM | – |
| O=C(O)c1c(-c2c[nH]nn2)sc2c(C3CC3)c(Cc3cccc4ccccc34)cc(=O)n12 [Example 18, 5-Cyclopropyl-4-[(1-naphthyl)methyl]-2-oxo-8-(1H-1,2,3-triazol-4-yl)-7-thia-1-azabicyclo[4.3.0]nona-3,5,8-triene-9-carboxylic acid] | 12% | 12% | 38% | – | – |
| Cc1cccc(CCc2cc(=O)n3c(c2C(C)C)SC[C@H]3C(=O)O)c1 [Example 28, (3R)-7-Isopropyl-4-oxo-6-[2-(m-tolyl)ethyl]-1-thia-3a-aza-3-indancarboxylic acid] | – | – | – | 50 µM | – |
| CC1(C)Sc2c(C3CC3)c(Cc3cccc4ccccc34)cc(=O)n2[C@@H]1C(=O)O [Example 46, (3R)-7-Cyclopropyl-2,2-dimethyl-6-[(1-naphthyl)methyl]-4-oxo-1-thia-3a-aza-3-indancarboxylic acid] | – | 62% | 38% | – | – |
| Cc1cc(=O)n2c(c1C1CC1)SC[C@H]2C(=O)O [Example 24, (3R)-7-Cyclopropyl-6-methyl-4-oxo-1-thia-3a-aza-3-indancarboxylic acid] | – | 12% | 62% | – | – |
| O=C(O)[C@@H]1CSc2c(C3CC3)c(Cc3ccc(F)c4ccccc34)cc(=O)n21 [Example 3, (3R)-7-Cyclopropyl-6-[(4-fluoro-1-naphthyl)methyl]-4-oxo-1-thia-3a-aza-3-indancarboxylic acid] | 100% | 100% | 100% | 50 µM | – |
